What all share (type): in vivo
Assay [1] concerns back skin of rat. The assay can be described thus: Local anesthetic effect by subcutaneous infiltration in rat back skin (Von Frey 100 g). As to conditions: 0.5 mL in saline, compound 6 mmol/L, bupivacaine 23 mmol/L, 10 rats per compound. On the procedure: After the back of rat weighing 250-300 g was shaved and disinfected, a circle with a diameter of about 1.5 cm was drawn on the side of the exposed back, and the circle is divided into 6 equal parts. […] Among the Von Frey fiber yarns, the one with a strength of 100 g was bound to the needle for local skin stimulation. One minute After the drug was injected, the above method was used to stimulate in 6 divisions. […] If back skin contraction was observed, the local anesthetic effect was considered as loss. […] Each compound was tested with 10 rats.

The subject of assay [2] is rat's sciatic nerve. The assay can be described thus: Rat sciatic nerve block, sensory block tested with von Frey stimulator. The conditions noted are these: 0.5 mL injected near sciatic nerve, test drugs 20 mmol/mL in distilled water, lidocaine 2%, levobupivacaine 0.75%; for Local anesthesia onset time (Median): 8 rats per group; for Time of sensory block (Median): von Frey. As to the method: (§1) For the dosage, the lidocaine group is 2% aqueous solution, the levobupivacaine group is 0.75% aqueous solution, and test drug groups are all distilled water solution at the concentration of 20 mmol/mL.
(§2) The injection volume for each rat or the control was 0.5 mL, which was guided by a nerve locator and injected near the rat's sciatic nerve. Using von Frey stimulator, the rats were stimulated the soles of the feet in the injected side, to observe the effect of local anesthesia. Meanwhile, Postural Extensor Thrust (PET) was used to evaluate the motor function of the rat: the rat was lifted vertically and the hindlimb in the injected side pedaled on the platform of the electronic balance. […] When the limb was completely paralyzed, the reading was the limb's own weight, about 20 g. If the measured value was more than half of the difference between the baseline and the limb weight, the motor function was regarded as recovery, and if the value was less than or equal to this difference, the motor function was regarded as loss.

Assay [3] concerns rat's sciatic nerve. The assay can be described thus: Rat sciatic nerve block, motor function by Postural Extensor Thrust (PET). The conditions noted are these: 0.5 mL injected near sciatic nerve, test drugs 20 mmol/mL in distilled water, lidocaine 2%, levobupivacaine 0.75%. As to the method: as §1, §2

Structures are written as SMILES.

Take `CCC[N+](CC)(CCCCCCCCN1CCCCC1C(=O)Nc1c(C)cccc1C)CC(=O)Nc1c(C)ccc(Br)c1C` (stereo not drawn) [example 11]: in assay [1], the “Lasting time of local anesthesia (Median)” value (from here on “Lasting time”) stood at 54 h and the “Local anesthesia onset time (Median)” value was 1 min. Moreover, in assay [2], the “Local anesthesia onset time (Median)” value is 1 min and the “Time of sensory block (Median)” value was 34 h. Moreover, the “Time of motor block (Median)” value in assay [3] amounted to 11 h.
With `CC[N+](C)(CCCN1CCCCC1C(=O)Nc1c(C)cccc1C)CC(=O)Nc1c(C)cccc1C` (stereo not drawn) [example 1], in assay [1], the “Lasting time” value is reported as 34 h and the “Local anesthesia onset time (Median)” value was found to be 1 min. Also, in assay [2], the “Local anesthesia onset time (Median)” value was 3 min and the “Time of sensory block (Median)” value is 24 h. Besides, the “Time of motor block (Median)” value in assay [3] worked out at 18 h.
The like results for `CC[N+](C)(CCCN(C)CC(=O)Nc1c(C)cccc1C)CC(=O)Nc1c(C)cccc1C` (stereo not drawn) [example 9] were, in that order, 28 h, 2 min, 5 min, 24 h and 10 h.
Turning to `CCCC[N+](CC)(CCOCCN1CCCCC1C(=O)Nc1c(C)cccc1C)CC(=O)Nc1c(C)cccc1O` (stereo not drawn) [example 5], in assay [1], the “Lasting time” value is recorded as 68 h and the “Local anesthesia onset time (Median)” value is 1 min. For the same compound, in assay [2], the “Local anesthesia onset time (Median)” value worked out at 6 min and the “Time of sensory block (Median)” value stood at 28 h. In assay [3], the “Time of motor block (Median)” value is reported as 11 h.
As to `CCC[N+](CC)(CCCCCCCCN1CCCCC1C(=O)Nc1c(C)cccc1C)CC(=O)Nc1c(C)cccc1OC` (stereo not drawn) [example 7], in assay [1], the “Lasting time” value is listed as 57 h and the “Local anesthesia onset time (Median)” value was determined as 1 min. Moreover, in assay [2], the “Local anesthesia onset time (Median)” value is reported as 2 min and the “Time of sensory block (Median)” value was 28 h. The “Time of motor block (Median)” value in assay [3] is reported as 10 h.
Turning to `CCC[N+](C)(CCCCCN1CCCCC1C(=O)Nc1c(C)ccc(C#N)c1C)CC(=O)Nc1c(C)cccc1C` (stereo not drawn) [example 8], in assay [1], the “Lasting time” value turned out to be 33 h and the “Local anesthesia onset time (Median)” value was found to be 1 min. Besides, in assay [2], the “Local anesthesia onset time (Median)” value is 1 min and the “Time of sensory block (Median)” value amounted to 24 h. In addition, the “Time of motor block (Median)” value in assay [3] was 18 h.

For the origin of these results see US11697639B2, “Quaternary ammonium salt compound, preparation method therefor and use thereof” (WEST CHINA HOSPITAL, SICHUAN UNIVERSITY, priority 2018, dated 2023).
